# Results as given in PMC3984044 (ChemMedChem, 2013).
# Counter-ions that a name gives are not always drawn. Like-named read-outs stand apart in the source and are kept apart here.
# Assays:
# in vitro = settings: mouse, microsomes
# in vivo = settings: mouse, po, 10 mg/kg
# [1] = system: PrP^Sc levels in ScN2a-cl3 cells; assay: cells; format: cell-based, mouse
# [2] = mouse, in vivo; cited from earlier work
# [3] = mouse, microsomes
# [4] = Mus musculus, read-out: EC50 ± SEM(nM)
smiles,measurement,setting,value
"Cc1cccc(Nc2nc(-c3ccc(-c4ccccc4)cc3)cs2)n1 [Compound 1, (4-Biphenyl-4-yl-thiazol-2-yl)-(6-methyl-pyridin-2-yl)-amine]",half-life,in vitro,> 60 min
same,Cmax,in vivo,2450 ± 740 nM
same,EC50,[1]; [4],1290 ± 122 nM
same,oral bioavailability (%F),[2],~40%
"Cc1cccc(Nc2nc(-c3ccc(-c4ccncc4)cc3)cs2)n1 [Compound 12, (6-Methyl-pyridin-2-yl)-[4-(4-pyridin-4-yl-phenyl)-thiazol-2-yl]-amine]",half-life,in vitro,> 60 min
same,fold greater antiprion potency than 1,[1],> 10 fold
same,EC50,[1]; [4],87 ± 43 nM
"Cc1cccc(Nc2nc(-c3ccc(-c4cc[n+]([O-])cc4)cc3)cs2)n1 [Compound 13, 4-(4-(2-((6-Methylpyridin-2-yl)amino)thiazol-4-yl)phenyl)pyridine 1-oxide]",EC50,[1]; [4],559 ± 120 nM
"Cc1cccc(Nc2nc(-c3ccc(-c4ccncc4C)cc3)cs2)n1 [Compound 14, (6-Methyl-pyridin-2-yl)-{4-[4-(3-methyl-pyridin-4-yl)-phenyl]-thiazol-2-yl}-amine trifluoro acetic acid salt]",EC50,[1]; [4],400 ± 61 nM
"Cc1cccc(Nc2nc(-c3ccc(-c4cccnc4)cc3)cs2)n1 [Compound 15, (6-Methyl-pyridin-2-yl)-[4-(4-pyridin-3-yl-phenyl)-thiazol-2-yl]-amine]",half-life,in vitro,> 60 min
same,fold greater antiprion potency than 1,[1],> 10 fold
same,EC50,[1]; [4],68 ± 13 nM
"Cc1cccc(Nc2nc(-c3ccc(-c4ccc[n+]([O-])c4)cc3)cs2)n1 [Compound 16, 3-(4-(2-((6-Methylpyridin-2-yl)amino)thiazol-4-yl)phenyl)pyridine 1-oxide]",half-life,in vitro,> 60 min
same,Cmax,in vivo,900 ± 240 nM
same,AUC,in vivo; AUC (μM *h) Brain,3.85 ± 0.52 µM·h
same,AUC,in vivo; AUC (μM *h) Plasma,11.5 ± 0.71 µM·h
same,EC50,[1]; [4],203 ± 10 nM
"Cc1cccc(Nc2nc(-c3ccc(-c4cccnc4C)cc3)cs2)n1 [Compound 17, (6-Methyl-pyridin-2-yl)-{4-[4-(2-methyl-pyridin-3-yl)-phenyl]-thiazol-2-yl}-amine trifluoro acetic acid salt]",EC50,[1]; [4],618 ± 54 nM
"Cc1cccc(Nc2nc(-c3ccc(-c4ccnn4C)cc3)cs2)n1 [Compound 18, {4-[4-(2-Methyl-2H-pyrazol-3-yl)-phenyl]-thiazol-2-yl}-(6-methyl-pyridin-2-yl)-amine]",EC50,[1]; [4],89 ± 35 nM
"Cc1cccc(Nc2nc(-c3ccc(-c4c(C)noc4C)cc3)cs2)n1 [Compound 19, {4-[4-(3,5-Dimethyl-isoxazol-4-yl)-phenyl]-thiazol-2-yl}-(6-methyl-pyridin-2-yl)-amine]",EC50,[1]; [4],2130 ± 226 nM
"Cc1cccc(Nc2nc(-c3ccc(N4CCN(C)CC4)cc3)cs2)n1 [Compound 20, {4-[4-(4-Methyl-piperazin-1-yl)-phenyl]-thiazol-2-yl}-(6-methyl-pyridin-2-yl)-amine]",EC50,[1]; [4],840 ± 132 nM
"Cc1cccc(Nc2nc(-c3ccc(N4CCOCC4)cc3)cs2)n1 [Compound 21, (6-Methyl-pyridin-2-yl)-[4-(4-morpholin-4-yl-phenyl)-thiazol-2-yl]-amine]",EC50,[1]; [4],51 ± 7 nM
"COCCOc1cccc(Nc2nc(-c3ccc(-c4ccccc4)cc3)cs2)n1 [Compound 22, 4-([1,1′-Biphenyl]-4-yl)-N-(6-(2-methoxyethoxy)pyridin-2-yl)thiazol-2-amine]",antiprion activity (in words),[1],inactive
same,EC50,[1]; [4],> 10000 nM
"CN(C)c1cccc(Nc2nc(-c3ccc(-c4ccccc4)cc3)cs2)n1 [Compound 23, N2-(4-([1,1′-biphenyl]-4-yl)thiazol-2-yl)-N6,N6-dimethylpyridine-2,6-diamine]",EC50,[1]; [4],699 ± 87 nM
"CN1CCN(c2cccc(Nc3nc(-c4ccc(-c5ccccc5)cc4)cs3)n2)CC1 [Compound 24, 4-([1,1′-Biphenyl]-4-yl)-N-(6-(4-methylpiperazin-1-yl)pyridin-2-yl)thiazol-2-amine]",EC50,[1]; [4],1180 ± 206 nM
"COc1ccc(-c2ccc(-c3csc(Nc4cccc(C)n4)n3)cc2)cn1 [Compound 25, {4-[4-(6-Methoxy-pyridin-3-yl)-phenyl]-thiazol-2-yl}-(6-methyl-pyridin-2-yl)-amine]",EC50,[1]; [4],140 ± 23 nM
"COCCOc1cc(-c2ccc(-c3csc(Nc4cccc(C)n4)n3)cc2)ccn1 [Compound 26, 4-(4-(2-(2-methoxyethoxy)pyridin-4-yl)phenyl)-N-(6-methylpyridin-2-yl)thiazol-2-amine]",Cmax,in vivo,330 ± 160 nM
same,AUC,in vivo; AUC (μM *h) Brain,1.04 ± 0.13 µM·h
same,EC50,[1]; [4],153 ± 36 nM
"COCCOc1ccc(-c2ccc(-c3csc(Nc4cccc(C)n4)n3)cc2)cn1 [Compound 27, 4-(4-(6-(2-methoxyethoxy)pyridin-3-yl)phenyl)-N-(6-methylpyridin-2-yl)thiazol-2-amine]",half-life,in vitro,> 60 min
same,Cmax,in vivo,970 ± 220 nM
same,AUC,in vivo; AUC (μM *h) Brain,3.27 ± 0.44 µM·h
same,AUC,in vivo; AUC (μM *h) Plasma,6.75 ± 0.45 µM·h
same,EC50,[1]; [4],137 ± 13 nM
"Cc1cccc(Nc2nc(-c3ccc(-c4ccnc(OC(C)C)c4)cc3)cs2)n1 [Compound 28, 4-(4-(2-isopropoxypyridin-4-yl)phenyl)-N-(6-methylpyridin-2-yl)thiazol-2-amine]",EC50,[1]; [4],2840 ± 22 nM
"Cc1cccc(Nc2nc(-c3ccc(-c4ccc(OC(C)C)nc4)cc3)cs2)n1 [Compound 29, 4-(4-(6-Isopropoxypyridin-3-yl)phenyl)-N-(6-methylpyridin-2-yl)thiazol-2-amine]",EC50,[1]; [4],5860 ± 327 nM
"Cc1cccc(Nc2nc(-c3ccc(-c4ccnc(N(C)C)c4)cc3)cs2)n1 [Compound 30, 4-(4-(2-(dimethylamino)pyridin-4-yl)phenyl)-N-(6-methylpyridin-2-yl)thiazol-2-amine]",EC50,[1]; [4],123 ± 35 nM
"Cc1cccc(Nc2nc(-c3ccc(-c4ccc(N(C)C)nc4)cc3)cs2)n1 [Compound 31, 4-(4-(6-(Dimethylamino)pyridin-3-yl)phenyl)-N-(6-methylpyridin-2-yl)thiazol-2-amine]",EC50,[1]; [4],69 ± 21 nM
"Cc1cccc(Nc2nc(-c3ccc(-c4ccnc(N5CCN(C)CC5)c4)cc3)cs2)n1 [Compound 32, 4-(4-(2-(4-methylpiperazin-1-yl)pyridin-4-yl)phenyl)-N-(6-methylpyridin-2-yl)thiazol-2-amine]",half-life,in vitro,6.8 min
same,Cmax,in vivo,1170 ± 190 nM
same,AUC,in vivo; AUC (μM *h) Brain,5.22 ± 0.1 µM·h
same,AUC,in vivo; AUC (μM *h) Plasma,1.57 ± 0.15 µM·h
same,EC50,[1]; [4],759 ± 374 nM
"Cc1cccc(Nc2nc(-c3ccc(-c4ccc(N5CCN(C)CC5)nc4)cc3)cs2)n1 [Compound 33, 4-(4-(6-(4-Methylpiperazin-1-yl)pyridin-3-yl)phenyl)-N-(6-methylpyridin-2-yl)thiazol-2-amine]",EC50,[1]; [4],96 ± 31 nM
"O=C(Nc1nc(-c2ccc(-c3ccccc3)cc2)cs1)C1CC1 [Compound 34, cyclopropanecarboxylic acid (4-biphenyl-thiazol-2-yl)-amide]",EC50,[1]; read-out: EC50 ± SEM,248 ± 67 nM
same,T1/2,[3],>60 min
"O=C(Nc1nc(-c2ccc(-c3ccncc3)cc2)cs1)C1CC1 [Compound 39, Cyclopropanecarboxylic acid [4-(4-pyridin-4-yl-phenyl)-thiazol-2-yl]-amide trifluoroacetic acid salt]",EC50,[1]; [4],173 ± 16 nM
"Cc1ncccc1-c1ccc(-c2csc(NC(=O)C3CC3)n2)cc1 [Compound 40, Cyclopropanecarboxylic acid {4-[4-(2-methyl-pyridin-3-yl)-phenyl]-thiazol-2-yl}-amide]",EC50,[1]; [4],> 10000 nM
"CN(C)c1ccc(-c2ccc(-c3csc(NC(=O)C4CC4)n3)cc2)cn1 [Compound 41, Cyclopropanecarboxylic acid {4-[4-(6-dimethylamino-pyridin-3-yl)-phenyl]-thiazol-2-yl}-amide]",EC50,[1]; [4],109 ± 12 nM
"Cn1nccc1-c1ccc(-c2csc(NC(=O)C3CC3)n2)cc1 [Compound 42, Cyclopropanecarboxylic acid {4-[4-(2-methyl-2H-pyrazol-3-yl)-phenyl]-thiazol-2-yl}-amide]",EC50,[1]; [4],> 10000 nM
"Cc1noc(C)c1-c1ccc(-c2csc(NC(=O)C3CC3)n2)cc1 [Compound 43, Cyclopropanecarboxylic acid {4-[4-(3,5-dimethyl-isoxazol-4-yl)-phenyl]-thiazol-2-yl}-amide]",EC50,[1]; [4],> 10000 nM
"COCCOc1cc(-c2ccc(-c3csc(NC(=O)C4CC4)n3)cc2)ccn1 [Compound 44, N-(4-(4-(2-(2-methoxyethoxy)pyridin-4-yl)phenyl)thiazol-2-yl)cyclopropanecarboxamide]",EC50,[1]; [4],1320 ± 233 nM
"CN1CCN(c2cc(-c3ccc(-c4csc(NC(=O)C5CC5)n4)cc3)ccn2)CC1 [Compound 45, N-(4-(4-(2-(4-methylpiperazin-1-yl)pyridin-4-yl)phenyl)thiazol-2-yl)cyclopropanecarboxamide]",half-life,in vitro,4.4 min
same,Cmax,in vivo,250 ± 110 nM
same,AUC,in vivo; AUC (μM *h) Brain,1.29 ± 0.02 µM·h
same,AUC,in vivo; AUC (μM *h) Plasma,0.76 ± 0.01 µM·h
same,EC50,[1]; [4],682 ± 100 nM
"COCCOc1ccc(-c2ccc(-c3csc(NC(=O)C4CC4)n3)cc2)cn1 [Compound 46, N-(4-(4-(6-(2-methoxyethoxy)pyridin-3-yl)phenyl)thiazol-2-yl)cyclopropanecarboxamide]",half-life,in vitro,55 min
same,Cmax,in vivo,150 ± 10 nM
same,AUC,in vivo; AUC (μM *h) Brain,0.32 µM·h
same,AUC,in vivo; AUC (μM *h) Plasma,0.26 ± 0.01 µM·h
same,EC50,[1]; [4],118 ± 11 nM
"CN1CCN(c2ccc(-c3ccc(-c4csc(NC(=O)C5CC5)n4)cc3)cn2)CC1 [Compound 47, N-(4-(4-(6-(4-methylpiperazin-1-yl)pyridin-3-yl)pheyl)thiazol-2-yl)cyclopropanecarboxamide]",EC50,[1]; read-out: EC50 ± SEM,70 ± 23 nM
same,T1/2,[3],2.5 min
